# How the values were obtained:
# [1] = tested on: bone cancer pain model in rat (Walker 256 cells); assay: Paw withdrawal thermal latency (PWL) in bone cancer pain model; type: in vivo, SD rats; conditions: twice daily for 3 days, PWL at 2 h after last administration (21d)
# Description: 1. Animals 50 SD rats (180-220 g), placed under a quiet and warm (22° C.) environment without strong light irradiation, having free access to feed and water.
# 2. Cell Culture: SD Rat homologous cancer cell strains Walker 256 preserved by the Laboratory Animal Center, Forth Military Medical
# University, or a commercially available product can be used. RPMI 1640 culture medium (Gibco Inc. of US, containing 100 U/ml each of 10% fetal bovine serum, penicillin, and streptomycin) was used, and the tumor cells were incubated as suspension cells in a 37° C. incubator under 5% CO2, with the medium replaced every other day, and 2 days for 1 passage. The cells were harvested at the 3rd passage, with a cell concentration of 2×10^5/10 μl.
# 3. Establishment of bone cancer pain model in rat: the rats were operated at the left knee with a small incision after anesthesia (40 mg/kg of pentobarbital sodium) according to sterile surgical operation procedures, the muscle was stripped off gently and the patellar ligament is cut open to expose the distal femur, with 1 mm syringe needle inserted from the intercondylar fossa vertically into the marrow cavity, with an inserting distance no more than 5 mm to prevent punching. Then a 20 μl micro-injector was inserted into the marrow cavity to slowly inject 10 μl of a suspension containing the Walker 256 cells (2×10^5 cancer cells per 10 μl). The injector was stayed there for a few minutes after the injection, and then the needle pinhole was immediately sealed with sterile bone wax. The tumor cells leaking out of the marrow cavity were killed with 75% ethyl alcohol, and then the rat was sutured under sterile conditions layer by layer. The same operation was performed in the sham operation group, except that only the same volume of sterile saline was injected into the marrow cavity slowly.
# 6. Drug intervention: On day 18 after the surgical operation, the SD rats of the operation group were randomized into 6 groups, i.e., respectively the model group; non-crystalline NB001 group (20 mg/kg, i.g.); the group of the crystal of the present invention (20 mg/kg, i.g.); morphine (2 mg/kg, i.p.); and gabapentin (100 mg/kg, i.g.). The new crystal form and non-crystalline form of the AC1 inhibitor NB001 were both formulated with sterile saline, and morphine and gabapentin were used as positive control drugs. All drugs were administered twice daily for 3 days, and the pain threshold was measured within 2 hours after the last administration on day 3
# 7. Assessment of rat pain behavior:
# Paw withdrawal thermal latency (PWL): the PWL was measured by using a PL-200 thermal pain stimulator (8V, 50 W, with a strength of 100%). The time period since the time irradiating the middle portion of the planta pedis at the operation side of the rat with light till the time the rat lifted its leg to keep out of the light was TWL. To prevent tissue injury, a cut-off time of 80 s was set, each rat was measured for 3 times with an interval of 5 min, and the results were averaged.
# [2] = tested on: mice treated with yeast polysaccharide; assay: Visceral pain behavior test in chronic visceral pain model; type: in vivo; conditions: for Number of visceral pain scores: 28 days after yeast polysaccharide treatment
# Description: Chronic Visceral Pain Model
# (§1) The visceral pain is induced by injecting yeast polysaccharide into the mice colony, and the yeast polysaccharide is derived from Saccharomyces cerevisiae (Sigma), wherein one kind of dextran is resident on the cell wall of the yeast and is identified as a protein-carbohydrate complex. Specifically, the mice were anesthetized after inhaling 1-3% isoflurane, and then a […] suspension of yeast polysaccharide (formulated as a 30 mg/ml solution in physiological saline) was injected into the colon of the mice by using a 24 mm long plastic feed needle within 2 minutes. The control group was injected with 0.1 ml physiological saline. The yeast polysaccharide or physiological saline was injected daily for 3 days. A visceral pain behavior test was carried out according to the Laird procedure. The number of times the mice licking the abdomen within 10 minutes was recorded, excluding other grooming behaviors, stretching of whole body, pressing the abdomen against the floor, and an 1-2-second arched posture. On day 1, 7 and 14 after the injection into the colon, an open field test was carried out from 9 am to 12 pm, and the entire test was a double-blind test. Prior to the behavioral test, the mice were acclimated for 30 minutes in an observation room. The mice were placed at the middle of a new open zone (43.2×43.2×30.5 cm^3) with micro light (<50 lux) and a fan. The movement distance, vertical count, movement count, stereotypic behavior count, and jumping count of animals were recorded within 30 minutes by means of an activity monitoring system equipped with multiple pairs of packaged light beam sets.
# (§2) The physiological saline, non-crystalline NB001 (3 mg/kg), the crystal of the present invention (3 mg/kg), and Gabapentin (30 mg/kg) as a positive control were intraperitoneally injected (IP) into the mice treated with yeast polysaccharide respectively. The behaviors of Mice were observed 28 days after the yeast polysaccharide treatment.
# [3] = tested on: mice after neuropathic pain; assay: Elevated plus maze test (EPM), neuropathic pain; type: in vivo
# Description: (§3) An anxious animal model of the prior art—the elevated plus maze test (EPM) was adopted. The mice were acclimated for 30 minutes in the room prior to the behavior observation. The EPM was composed of two open arms (250 lux) and two closed arms (350 lux) arranged opposite to each other. For each test, an individual animal was placed at the center of the test position and allowed to move freely. The test is carried out for 5 minutes. The number of entering the test position for each arm and the time spent therefore were recorded.
# The other two sets of tests were conducted to test the effect of the crystal of the present invention on inhibiting anxiety caused by chronic pain and neuropathic pain.
# as §2, with “The EPM test tested the anxiety behavior of mice after the test treatment. The physiological” for “The physiological”
# [4] = tested on: mice treated with yeast polysaccharide; assay: Elevated plus maze test (EPM), visceral pain; type: in vivo; conditions: for % time in the open arm: Visceral pain
# Description: as §1, §3
# as §2, with “The EPM test tested the anxiety behavior of mice after the test treatment. The physiological” for “The physiological”
# [5] = tested on: mice after neuropathic pain; assay: Bright/dark box test, neuropathic pain; type: in vivo
# [6] = tested on: mice treated with yeast polysaccharide; assay: Bright/dark box test, visceral pain; type: in vivo; conditions: for % time in the open arm: Bright/dark box test, Visceral pain
# Description: as §1
# Bright/dark box test: The test procedure was carried out by using an improved method in accordance with the prior art. The device was composed of a rectangular organic glass box (44×8.5×25 cm^3), which is separated into bright and dark compartments with the equal size by using a door. A 60 watt lamp (400 lux) in turn-on state was placed at 30 cm above the box to irradiate the bright compartment. Each animal was first placed in the dark compartment for 20 seconds, and then the door leading to the bright compartment was open. The time each animal stayed in the dark compartment and the time each animal enters the bright compartment within 10 minutes were recorded.
# as §2, with “In order to confirm the effect of the crystal of the present invention on inhibiting anxiety, mice were subjected to a bright/dark box test, and the results were as shown in Table 8. The physiological” for “The physiological”
# [7] = Approximate solubility of BPCs in organic solvent and mixed solvent; type: physicochemical; conditions: organic solvent or mixture, thermodynamic from solid
# Description: Into 7 mL vials were weighed 2.0 mg of the raw material respectively. Then appropriate amount of methanol, ethanol, isopropyl alcohol, n-butanol, acetonitrile, acetone, ethyl acetate, 2-methyl tetrahydrofuran, tetrahydrofuran, dioxane, n-pentyl alcohol, toluene, isopropyl alcohol+water (with a mass ratio of 3:1), acetonitrile+water (with a mass ratio of 3:1), acetone+water (with a mass ratio of 3:1), and ethanol+water (with a mass ratio of 3:1) were added into respective vials, and the mixture was shaken rapidly to dissolve the compound of the mixture until the solution becomes clear. The approximate solubility of the resultant bulk pharmaceutical chemicals (BPC) in an organic solvent and a mixed solvent was shown in Table 1 below.
# [8] = molecular target: adenylate cyclase 1 (Homo sapiens, UniProt Q08828); conditions: described in WO2007/041863; cited from earlier work
# Sequence of adenylate cyclase 1 (Q08828 whole entry): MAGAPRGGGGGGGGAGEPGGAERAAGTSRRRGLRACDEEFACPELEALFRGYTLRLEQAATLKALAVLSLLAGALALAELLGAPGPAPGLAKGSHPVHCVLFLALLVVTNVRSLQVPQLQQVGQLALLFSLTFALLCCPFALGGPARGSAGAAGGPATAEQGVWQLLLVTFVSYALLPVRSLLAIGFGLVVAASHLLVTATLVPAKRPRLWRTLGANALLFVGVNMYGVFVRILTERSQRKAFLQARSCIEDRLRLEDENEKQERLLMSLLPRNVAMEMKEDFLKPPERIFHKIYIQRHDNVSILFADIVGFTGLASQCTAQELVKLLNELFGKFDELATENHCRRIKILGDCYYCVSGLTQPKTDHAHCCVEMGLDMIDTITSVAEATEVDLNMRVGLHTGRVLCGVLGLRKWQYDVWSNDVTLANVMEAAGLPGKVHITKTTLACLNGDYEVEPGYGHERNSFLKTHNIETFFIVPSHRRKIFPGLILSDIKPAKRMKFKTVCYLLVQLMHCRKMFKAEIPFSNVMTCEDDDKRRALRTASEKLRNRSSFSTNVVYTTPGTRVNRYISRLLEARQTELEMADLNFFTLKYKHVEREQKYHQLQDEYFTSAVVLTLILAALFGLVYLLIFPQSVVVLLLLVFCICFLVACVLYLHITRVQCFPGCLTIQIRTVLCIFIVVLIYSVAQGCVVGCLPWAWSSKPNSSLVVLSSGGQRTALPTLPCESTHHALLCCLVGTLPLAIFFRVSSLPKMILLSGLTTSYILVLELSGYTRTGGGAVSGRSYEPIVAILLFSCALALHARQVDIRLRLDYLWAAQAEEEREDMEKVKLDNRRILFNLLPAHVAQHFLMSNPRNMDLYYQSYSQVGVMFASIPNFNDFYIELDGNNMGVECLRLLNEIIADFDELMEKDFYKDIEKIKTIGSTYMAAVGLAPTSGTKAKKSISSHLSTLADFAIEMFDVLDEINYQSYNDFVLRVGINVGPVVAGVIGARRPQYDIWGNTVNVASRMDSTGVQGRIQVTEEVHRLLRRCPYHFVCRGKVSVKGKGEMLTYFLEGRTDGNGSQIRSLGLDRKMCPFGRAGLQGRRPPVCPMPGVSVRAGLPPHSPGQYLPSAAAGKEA
compound,measurement,setting,value
"NCC1(CC(=O)O)CCCCC1 [Gabapentin, gabapentin, reference compound]",analgesic effect (PWL) as compared with the model group,"[1]; 100 mg/kg, i.g.",better analgesic effect
same,Number of visceral pain scores,[2]; 30 mg/kg IP,20.7 ± 1.9
same,% time in the open arm,[3]; 30 mg/kg IP,9.6 ± 1.5 (7) %
same,% time in the open arm,[4]; 30 mg/kg IP,8.6 ± 1.5 (8) %
same,% time in the open arm,[5]; 30 mg/kg IP,9.6 ± 1.5 (7) %
same,% time in the open arm,[6]; 30 mg/kg IP,8.6 ± 1.5 (8) %
"Nc1ncnc2c1ncn2CCNCCCCCO [NB001, 5-(((2-(6-amino)-9H-purin-9-yl)ethyl)amino)pentan-1-ol]",solubility,[7]; 2-methyl tetrahydrofuran,< 2000 µg/mL
same,solubility,[7]; acetone,< 2000 µg/mL
same,solubility,[7]; acetone/water (mass ratio 3:1),100000 to 200000 µg/mL
same,solubility,[7]; acetonitrile,< 2000 µg/mL
same,solubility,[7]; acetonitrile/water (mass ratio 3:1),100000 to 200000 µg/mL
same,solubility,[7]; dioxane,< 2000 µg/mL
same,solubility,[7]; ethanol,7000 to 10000 µg/mL
same,solubility,[7]; ethanol/water (mass ratio 3:1),100000 to 200000 µg/mL
same,solubility,[7]; ethyl acetate,< 2000 µg/mL
same,solubility,[7]; isopropyl alcohol,~2000 µg/mL
same,solubility,[7]; isopropyl alcohol/water (mass ratio 3:1),70000 to 100000 µg/mL
same,solubility,[7]; methanol,50000 to 66000 µg/mL
same,solubility,[7]; n-butanol,2200 to 2500 µg/mL
same,solubility,[7]; n-pentyl alcohol,3000 to 4000 µg/mL
same,solubility,[7]; tetrahydrofuran,< 2000 µg/mL
same,solubility,[7]; toluene,< 2000 µg/mL
same,% time in the open arm,"[3]; 3 mg/kg IP, 3 mg/kg",10.1 ± 1.8 (8) %
same,% time in the open arm,"[4]; 3 mg/kg IP, 3 mg/kg",5.2 ± 0.7 (8) %
same,% time in the open arm,"[5]; 3 mg/kg IP, 3 mg/kg",10.1 ± 1.8 (8) %
same,% time in the open arm,"[6]; 3 mg/kg IP, 3 mg/kg",5.2 ± 0.7 (8) %
same,inhibition of adenylate cyclase 1,[8],capable of selectively inhibiting adenylate cyclase 1
"Nc1ncnc2c1ncn2CCNCCCCCO [Old NB001, 5-(((2-(6-amino)-9H-purin-9-yl)ethyl)amino)pentan-1-ol]",analgesic effect (PWL) as compared with the model group,"[1]; 20 mg/kg, i.g.",better analgesic effect
same,Number of visceral pain scores,[2]; 3 mg/kg IP,19.6 ± 1.2
same,therapeutic effect on chronic pain as compared with the positive control group,"[2]; 3 mg/kg IP, Table 6, listed as non-crystalline NB001",significant therapeutic effects
same,therapeutic effect in EPM test as compared with the positive control group,"[4]; 3 mg/kg IP, Table 7, listed as non-crystalline NB001",significant therapeutic effects
same,therapeutic effect in bright/dark box test as compared with the positive control group,"[6]; 3 mg/kg IP, Table 8, listed as non-crystalline NB001",significant therapeutic effects
"CN1CC[C@]23c4c5ccc(O)c4O[C@H]2[C@@H](O)C=C[C@H]3[C@H]1C5 [morphine, reference compound]",analgesic effect (PWL) as compared with the model group,"[1]; 2 mg/kg, i.p.",better analgesic effect

# From patent US9963457B2, “Crystal of 5-((2-(6-amino)-9H-purin-9-yl)ethyl)amino)pentan-1-o1” (FOREVER CHEER INTERNATIONAL LIMITED, priority 2016, dated 2018)
